Results: patent US8263605B2, “Modulators of muscarinic receptors” (Vertex Pharmaceutical Incorporated, priority 2006, dated 2012)

Experiments:
[1] = molecular target: T1, M1 muscarinic receptor (Homo sapiens, UniProt P11229); test: Functional mobilization of intracellular calcium (FLIPR), M1-CHO cells; assay type: cell-based; conditions: for Emax: 100% efficacy is the maximum response obtained with the Carbachol control; for M1 Activity: CHO cells expressing M1, calcium mobilization
T1 construct: expressed in transfected cells; host or cells: CHO (M1-CHO)
T1 sequence (P11229 1-460): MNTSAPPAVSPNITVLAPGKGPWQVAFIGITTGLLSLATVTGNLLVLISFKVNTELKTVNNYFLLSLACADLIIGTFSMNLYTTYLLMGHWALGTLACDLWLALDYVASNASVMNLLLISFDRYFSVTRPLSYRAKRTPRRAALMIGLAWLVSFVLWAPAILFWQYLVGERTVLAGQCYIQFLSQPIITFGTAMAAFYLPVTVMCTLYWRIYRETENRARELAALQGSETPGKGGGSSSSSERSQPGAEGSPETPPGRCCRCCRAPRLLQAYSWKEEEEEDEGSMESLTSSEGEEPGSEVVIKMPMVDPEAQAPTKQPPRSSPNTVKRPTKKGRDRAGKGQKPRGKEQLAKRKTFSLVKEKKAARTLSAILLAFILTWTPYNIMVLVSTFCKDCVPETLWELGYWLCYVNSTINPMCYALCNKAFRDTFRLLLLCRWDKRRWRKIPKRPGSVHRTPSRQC
Procedure, shortened: (§1)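 Recombinant CHO cells loaded with Fluo-3 AM or Calcium 3 dye; fluorescence recorded 60 s on FLIPR in pH 7.4 buffer with 1 mM probenecid, 0.5% DMSO. Agonist mode: compound alone; antagonist mode: 15 min preincubation (or co-application) then carbachol at EC80. Efficacy relative to maximal carbachol response.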

[2] = molecular target: T2, M4 muscarinic receptor (Homo sapiens, UniProt P08173); test: Functional mobilization of intracellular calcium (FLIPR), M4-CHO cells; assay type: cell-based; conditions: for Emax: 100% efficacy is the maximum response obtained with the Carbachol control; for M4 Activity: CHO cells expressing M4, calcium mobilization
T2 construct: expressed in transfected cells; host or cells: CHO (M4-CHO)
T2 sequence (P08173 1-479): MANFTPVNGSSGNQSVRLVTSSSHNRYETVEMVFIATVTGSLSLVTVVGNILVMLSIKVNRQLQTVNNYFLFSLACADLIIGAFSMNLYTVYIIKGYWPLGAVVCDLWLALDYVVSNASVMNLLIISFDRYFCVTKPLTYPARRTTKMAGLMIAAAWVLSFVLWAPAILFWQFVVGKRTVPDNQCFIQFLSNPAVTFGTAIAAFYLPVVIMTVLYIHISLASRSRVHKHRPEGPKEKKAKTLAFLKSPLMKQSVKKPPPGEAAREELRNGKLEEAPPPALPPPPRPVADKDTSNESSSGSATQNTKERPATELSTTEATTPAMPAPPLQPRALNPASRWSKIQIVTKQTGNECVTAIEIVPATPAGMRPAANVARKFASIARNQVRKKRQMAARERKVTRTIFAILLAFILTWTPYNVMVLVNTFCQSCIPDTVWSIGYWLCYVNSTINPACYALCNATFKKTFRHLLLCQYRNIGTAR
Procedure, shortened: as §1

Row | SMILES | Emax [1] [%] | M1 Activity [1] | Emax [2] [%] | M4 Activity [2]
1 | Cc1nsc(N2CC[C@H](CN3CCC4(CC3)CN(C(=O)N(C)C)c3ccccc34)C2)n1 [compound 83] | 25 to 100 | ++ (activity was measured to be from 2.0 μM to 10.0 μM) | 25 to 100 | +++ (activity was measured to be less than 2.0 μM)
2 | CCc1nsc(N2CC[C@H](CN3CCC4(CC3)CN(C(=O)N(C)C)c3ccccc34)C2)n1 [compound 84] | 25 to 100 | +++ (activity was measured to be less than 2.0 μM) | 25 to 100 | +++ (activity was measured to be less than 2.0 μM)
3 | Cc1nsc(N2CC[C@@H](CN3CCC4(CC3)CN(C(=O)N(C)C)c3ccccc34)C2)n1 [compound 85] | 25 to 100 | +++ (activity was measured to be less than 2.0 μM) | > 100 | +++ (activity was measured to be less than 2.0 μM)
4 | CCc1nsc(N2CC[C@@H](CN3CCC4(CC3)CN(C(=O)N(C)C)c3ccccc34)C2)n1 [compound 86] | 25 to 100 | +++ (activity was measured to be less than 2.0 μM) | 25 to 100 | +++ (activity was measured to be less than 2.0 μM)
5 | Cc1ncc(N2CC[C@H](CN3CCC4(CC3)CN(C(=O)N(C)C)c3ccccc34)C2)nc1C [compound 87] | < 25 | + (activity was measured to be greater than 10.0 μM) | 25 to 100 | +++ (activity was measured to be less than 2.0 μM)
6 | Cc1ncc(N2CCC(N3CCC4(CC3)CN(C(=O)N(C)C)c3ccccc34)CC2)nc1C [compound 88] | 25 to 100 | ++ (activity was measured to be from 2.0 μM to 10.0 μM) | 25 to 100 | +++ (activity was measured to be less than 2.0 μM)
7 | CN(C)C(=O)N1CC2(CCN(C3CCN(c4nncs4)CC3)CC2)c2ccccc21 [compound 89] | < 25 | ++ (activity was measured to be from 2.0 μM to 10.0 μM) | 25 to 100 | ++ (activity was measured to be from 2.0 μM to 10.0 μM)
8 | CN(C)C(=O)N1CC2(CCN(C3CCN(c4nccs4)CC3)CC2)c2ccccc21 [compound 90] | 25 to 100 | ++ (activity was measured to be from 2.0 μM to 10.0 μM) | 25 to 100 | ++ (activity was measured to be from 2.0 μM to 10.0 μM)
9 | Cc1csc(N2CCC(N3CCC4(CC3)CN(C(=O)N(C)C)c3ccccc34)CC2)n1 [compound 91] | 25 to 100 | ++ (activity was measured to be from 2.0 μM to 10.0 μM) | 25 to 100 | +++ (activity was measured to be less than 2.0 μM)
10 | C#CCOC(=O)N1CCC(N2CCC3(CC2)CN(C(=O)N(C)C)c2ccccc23)CC1 [compound 92] | > 100 | +++ (activity was measured to be less than 2.0 μM) | > 100 | +++ (activity was measured to be less than 2.0 μM)
11 | CCC#CCOC(=O)N1CCC(N2CCC3(CC2)CN(C(=O)N(C)C)c2ccccc23)CC1 [compound 93] | 25 to 100 | +++ (activity was measured to be less than 2.0 μM) | 25 to 100 | +++ (activity was measured to be less than 2.0 μM)
12 | C#CCOC(=O)N1C2CCC1CC(N1CCC3(CC1)CN(C(=O)N(C)C)c1ccccc13)C2 (stereo not drawn) [compound 94] | 25 to 100 | +++ (activity was measured to be less than 2.0 μM) | 25 to 100 | +++ (activity was measured to be less than 2.0 μM)
13 | CC#CCOC(=O)N1C2CCC1CC(N1CCC3(CC1)CN(C(=O)N(C)C)c1ccccc13)C2 (stereo not drawn) [compound 95] | 25 to 100 | +++ (activity was measured to be less than 2.0 μM) | 25 to 100 | +++ (activity was measured to be less than 2.0 μM)
14 | CCOC(=O)N1CC[C@@H](CN2CCC3(CC2)CN(C(=O)N(C)C)c2ccccc23)C1 [compound 96] | 25 to 100 | +++ (activity was measured to be less than 2.0 μM) | > 100 | +++ (activity was measured to be less than 2.0 μM)
15 | C#CCOC(=O)N1CC[C@@H](CN2CCC3(CC2)CN(C(=O)N(C)C)c2ccccc23)C1 [compound 97] | 25 to 100 | +++ (activity was measured to be less than 2.0 μM) | 25 to 100 | +++ (activity was measured to be less than 2.0 μM)
16 | CC#CCOC(=O)N1CC[C@@H](CN2CCC3(CC2)CN(C(=O)N(C)C)c2ccccc23)C1 [compound 98] | 25 to 100 | +++ (activity was measured to be less than 2.0 μM) | 25 to 100 | +++ (activity was measured to be less than 2.0 μM)
17 | CCC#CCOC(=O)N1CC[C@@H](CN2CCC3(CC2)CN(C(=O)N(C)C)c2ccccc23)C1 [compound 99] | 25 to 100 | +++ (activity was measured to be less than 2.0 μM) | > 100 | +++ (activity was measured to be less than 2.0 μM)
18 | C#CCOC(=O)N1CC[C@H](CN2CCC3(CC2)CN(C(=O)N(C)C)c2ccccc23)C1 [compound 100] | 25 to 100 | +++ (activity was measured to be less than 2.0 μM) | 25 to 100 | +++ (activity was measured to be less than 2.0 μM)
19 | CC#CCOC(=O)N1CC[C@H](CN2CCC3(CC2)CN(C(=O)N(C)C)c2ccccc23)C1 [compound 101] | 25 to 100 | +++ (activity was measured to be less than 2.0 μM) | > 100 | +++ (activity was measured to be less than 2.0 μM)
20 | CCC#CCOC(=O)N1CC[C@H](CN2CCC3(CC2)CN(C(=O)N(C)C)c2ccccc23)C1 [compound 102] | 25 to 100 | +++ (activity was measured to be less than 2.0 μM) | > 100 | +++ (activity was measured to be less than 2.0 μM)
21 | C#CCOC(=O)N1CCCC(N2CCC3(CC2)CN(C(=O)N(C)C)c2ccccc23)CC1 (stereo not drawn) [compound 104] | > 100 | +++ (activity was measured to be less than 2.0 μM) | > 100 | +++ (activity was measured to be less than 2.0 μM)
22 | CC#CCOC(=O)N1CCCC(N2CCC3(CC2)CN(C(=O)N(C)C)c2ccccc23)CC1 (stereo not drawn) [compound 105] | > 100 | +++ (activity was measured to be less than 2.0 μM) | > 100 | +++ (activity was measured to be less than 2.0 μM)
23 | CCC#CCOC(=O)N1CCCC(N2CCC3(CC2)CN(C(=O)N(C)C)c2ccccc23)CC1 (stereo not drawn) [compound 106] | 25 to 100 | +++ (activity was measured to be less than 2.0 μM) | 25 to 100 | +++ (activity was measured to be less than 2.0 μM)
24 | CCOC(=O)N1CCCC(N2CCC3(CC2)CN(C(=O)N(C)C)c2ccccc23)CCC1 [compound 107] | > 100 | +++ (activity was measured to be less than 2.0 μM) | > 100 | +++ (activity was measured to be less than 2.0 μM)
